Reference: US20090170844A1, “Spiro Tetracyclic Compound” (priority 2006, published 2009)

How the values were obtained:
[1] = target: T1, human FXa (Homo sapiens, UniProt P00742); assay: Measurement of the human FXa inhibitory action (synthetic substrate S-2222); assay type: biochemical; settings: human FXa 0.019 U/ml, S-2222 0.4 mM, 37° C., pH 7.5
T1 construct: purchased Enzyme Research Laboratories, Inc
Method: In vitro FXa inhibitory activity may be measured according to the method of Kettner et al. (Journal of Biological Chemistry, vol. 265, pages 18289 to 18297, 1990). To be more specific, human FXa (product of Enzyme Research Laboratories, Inc., 0.019 U/ml) is mixed with the specimens (of the compound of the present invention) prepared by diluting the compound of the invention with dimethylsulfoxide (DMSO) to different concentrations and synthetic substrate S-2222 (Chromogenix AB, 0.4 mM), and the mixtures are incubated at 37° C. in Tris-hydrochloric acid buffer (pH 7.5). The FXa inhibitory activity of the specimen is calculated by measuring the absorbance at 405 nm.
It should be noted that the FXa inhibitory activity of the specimen is generally indicated as IC50.

[2] = test system: human plasma; assay: Anticoagulant activity in vitro: intrinsic coagulation time (APTT); assay type: biochemical; settings: APTT reagent, calcium chloride 25 mM
Method: Activated partial thromboplastin time (APTT) is measured in the presence of the test compounds of the present invention diluted at various concentrations. To be more specific, each of the test compounds diluted with DMSO at various concentrations is mixed with human plasma and APTT reagent. The mixture is incubated at 37° C. for 2 minutes; calcium chloride (25 mM) is added to the mixture; and the coagulation time is thereafter measured. It should be noted that the anticoagulant activity of the test compound is described in terms of the concentration required to double the coagulation time for the case where no test compound is added.

T1 sequence (P00742 235-488 limits assumed): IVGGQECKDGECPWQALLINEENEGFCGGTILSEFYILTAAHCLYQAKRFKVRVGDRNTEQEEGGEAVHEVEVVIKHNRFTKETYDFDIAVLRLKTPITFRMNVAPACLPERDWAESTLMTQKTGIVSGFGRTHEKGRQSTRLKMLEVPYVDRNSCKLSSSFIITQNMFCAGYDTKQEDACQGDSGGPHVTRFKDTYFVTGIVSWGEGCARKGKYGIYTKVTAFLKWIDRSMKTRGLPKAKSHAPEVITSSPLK
T1 sequence (P00742 41-179 partner limits assumed): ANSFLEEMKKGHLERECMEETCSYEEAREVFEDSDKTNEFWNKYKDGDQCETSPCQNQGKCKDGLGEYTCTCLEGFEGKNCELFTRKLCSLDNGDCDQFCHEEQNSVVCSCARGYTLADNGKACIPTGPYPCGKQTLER

Structure (SMILES) | IC50 [1] [nM] | Concentration when APTT was doubled [2] [µM]
CN1CC23CN(S(=O)(=O)c4cc5cc(Cl)ccc5[nH]4)CC(=O)N2CC2(CCN(C4=NCCCO4)CC2)N3C1=O (single isomer, unassigned; (-)) [Example 18, (−)-3′,5′,8′,11′-tetraaza-11′-(5-chloro-1H-indol-2-ylsulfonyl)-1-(5,6-dihydro-4H-1,3-oxazin-2-yl)-3′-methylspiro[piperidine-4,6′-tricyclo[6.4.0.0^1,5]dodecane]-4′,9′-dione] | 4.3 | 0.26
O=C1CN(S(=O)(=O)c2ccc3cc(Cl)ccc3c2)CC23CNC(=O)N2C2(CCN(c4cccnn4)CC2)CN13 (racemic) [Example 3, (±)-3′,5′,8′,11′-tetraaza-11′-(6-chloronaphthalen-2-ylsulfonyl)-1-(3-pyridazinyl)spiro[piperidine-4,6′-tricyclo[6.4.0.0^1,5]dodecane]-4′,9′-dione] | 4.1 | –
CN1CC23CN(S(=O)(=O)c4cc5ccc(Cl)cc5s4)CC(=O)N2CC2(CCN(C4=NCCCC4)CC2)N3C1=O (single isomer, unassigned; (-)) [Example 14, (−)-3′,5′,8′,11′-tetraaza-11′-(6-chlorobenzo[b]thiophen-2-ylsulfonyl)-1-(3,4,5,6-tetrahydropyridin-2-yl)-3′-methylspiro[piperidine-4,6′-tricyclo[6.4.0.0^1,5]dodecane]-4′,9′-dione] | 3.6 | 0.24
O=C1CN(S(=O)(=O)c2ccc3cc(Cl)ccc3c2)CC23CNC(=O)N2C2(CCN(C4=NCCO4)CC2)CN13 (racemic) [Example 2, (±)-3′,5′,8′,11′-tetraaza-11′-(6-chloronaphthalen-2-ylsulfonyl)-1-(2-oxazolinyl)spiro[piperidine-4,6′-tricyclo[6.4.0.0^1,5]dodecane]-4′,9′-dione] | 4.8 | –
CN1CC23CN(S(=O)(=O)c4ccc5cc(Cl)ccc5c4)CC(=O)N2CC2(CCN(C4=NCCCC4)CC2)N3C1=O (single isomer, unassigned; (-)) [Example 8, (−)-3′,5′,8′,11′-tetraaza-11′-(6-chloronaphthalen-2-ylsulfonyl)-1-(3,4,5,6-tetrahydropyridin-2-yl)-3′-methylspiro[piperidine-4,6′-tricyclo[6.4.0.0^1,5]dodecane]-4′,9′-dione] | – | 0.27
CN1CC23CN(S(=O)(=O)c4cc5ccc(Cl)cc5s4)CC(=O)N2CC2(CCN(C4=NCCCO4)CC2)N3C1=O (single isomer, unassigned; (-)) [Example 12, (−)-3′,5′,8′,11′-tetraaza-11′-(6-chlorobenzo[b]thiophen-2-ylsulfonyl)-1-(5,6-dihydro-4H-1,3-oxazin-2-yl)-3′-methylspiro[piperidine-4,6′-tricyclo[6.4.0.0^1,5]dodecane]-4′,9′-dione] | – | 0.34

The remaining molecules from weak to strong by IC50 [1], led by results:

IC50 [1] [nM] | Structure (SMILES) | Concentration when APTT was doubled [2] [µM]
4.7 | CN1CC23CN(S(=O)(=O)c4cc5ccc(Cl)cc5s4)CC(=O)N2CC2(CCN(C4=NCCO4)CC2)N3C1=O (single isomer, unassigned; (-)) [Example 11, (−)-3′,5′,8′,11′-tetraaza-11′-(6-chlorobenzo[b]thiophen-2-ylsulfonyl)-3′-methyl-1-(2-oxazolinyl)spiro[piperidine-4,6′-tricyclo[6.4.0.0^1,5]dodecane]-4′,9′-dione] | –
4 | CN1CN2C3(CCN(c4ccncc4)CC3)CN3C(=O)CN(S(=O)(=O)c4ccc5cc(Cl)ccc5c4)CC32C1 (racemic) [Example 5, (±)-3′,5′,8′,11′-tetraaza-11′-(6-chloronaphthalen-2-ylsulfonyl)-3′-methyl-1-(4-pyridyl)spiro[piperidine-4,6′-tricyclo[6.4.0.0^1,5]dodecan]-9′-one] | –
4 | CCC(=O)N1CCC2(CC1)CN1C(=O)CN(S(=O)(=O)c3cc4cc(Cl)ccc4[nH]3)CC13CN(C)C(=O)N23 (single isomer, unassigned; (-)) [Example 22, (−)-3′,5′,8′,11′-tetraaza-11′-(5-chloro-1H-indol-2-ylsulfonyl)-3′-methyl-1-propionylspiro[piperidine-4,6′-tricyclo[6.4.0.0^1,5]dodecane]-4′,9′-dione] | –
3 | CN1CC23CN(S(=O)(=O)c4cc5cc(Cl)ccc5[nH]4)CC(=O)N2CC2(CCN(C4=NCCCC4)CC2)N3C1=O (single isomer, unassigned; (-)) [Example 20, (−)-3′,5′,8′,11′-tetraaza-11′-(5-chloro-1H-indol-2-ylsulfonyl)-1-(3,4,5,6-tetrahydropyridin-2-yl)-3′-methylspiro[piperidine-4,6′-tricyclo[6.4.0.0^1,5]dodecane]-4′,9′-dione] | 0.24
2.4 | CN1CC23CN(S(=O)(=O)c4ccc5cc(Cl)ccc5c4)CC(=O)N2CC2(CCN(C4=NCCO4)CC2)N3C1=O (single isomer, unassigned; (-)) [Example 29, (−)-3′,5′,8′,11′-tetraaza-11′-(6-chloronaphthalen-2-ylsulfonyl)-3′-methyl-1-(2-oxazolinyl)spiro[piperidine-4,6′-tricyclo[6.4.0.0^1,5]dodecane]-4′,9′-dione] | –
0.4 | CN1CC23CN(S(=O)(=O)c4cc5cc(Cl)ccc5[nH]4)CC(=O)N2CC2(CCN(C4=NCCO4)CC2)N3C1=O (single isomer, unassigned; (-)) [Example 17, (−)-3′,5′,8′,11′-tetraaza-11′-(5-chloro-1H-indol-2-ylsulfonyl)-3′-methyl-1-(2-oxazolinyl)spiro[piperidine-4,6′-tricyclo[6.4.0.0^1,5]dodecane]-4′,9′-dione] | –
